Measurements: patent publication US8530636B2, “Method for regulating protein function in cells in vivo using synthetic small molecules” (priority 2008, dated 2013)
“Also recorded” adds a separate entry of the source.

Columns and labels:
[1] = cited from earlier work
[2] = mouse, in vivo
HCT116 tumors = test: vvDD L-L106P-IL-2 in mice bearing HCT116 tumors
FKBP-YFP fusion proteins [3] = molecular target: FKBP-YFP fusion proteins (Homo sapiens, UniProt P62942, F37V); test: Kinetics of FKBP-YFP fluorescence upon addition of Shield1; details: L106P-YFP, various concentrations of Shield1
Chain of FKBP-YFP fusion proteins (Homo sapiens, UniProt P62942, F37V) (P62942 with tags, fused parts or gaps F37V): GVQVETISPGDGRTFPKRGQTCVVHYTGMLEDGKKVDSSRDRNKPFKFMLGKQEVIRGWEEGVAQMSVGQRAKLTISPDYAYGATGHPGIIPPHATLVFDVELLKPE

FKBP-YFP fusion proteins [4] = test: as above
L-L106P-IL-2 [5] = molecular target: T1, L-L106P-IL-2 (Homo sapiens, UniProt P60568); test: IL-2 secreted by HCT116 L-L106P-IL-2 cells, ELISA of culture media; assay type: cell-based; details: dose-dependent on Shield1 in the media
T1 construct: IL-2 signal peptide (L), human IL-2 (N); expressed in transfected cells; in culture (A11) or as xenograft in CD1 nu-/nu- mice (A13)
T1 sequence (P60568 with tags, fused parts or gaps): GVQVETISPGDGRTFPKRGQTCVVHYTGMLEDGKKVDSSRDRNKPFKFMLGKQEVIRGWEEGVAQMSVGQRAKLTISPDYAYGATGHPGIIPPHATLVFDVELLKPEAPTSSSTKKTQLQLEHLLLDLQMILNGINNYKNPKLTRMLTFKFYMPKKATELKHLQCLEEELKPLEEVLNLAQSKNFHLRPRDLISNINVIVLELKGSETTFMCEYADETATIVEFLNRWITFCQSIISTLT
Description: (§1) FIGS. 22A-22D show graphs relating to the conditional stabilization of a secreted immunomodulatory protein leads. […] Data are represented as the average IL-2 concentration ±SEM (n=3). […] Tumor volume was determined by caliper measurement and monitored over time. Data are represented as the average tumor volume ±SEM (n=5).
Interleukin-2 (IL-2) is a cytokine that is instrumental in immune response, inducing the differentiation and proliferation of a variety of lymphocyte populations (Gaffen, S. L. and Liu, K. D. (2004) Cytokine 28:109-23). Recombinant IL-2 is approved for clinical treatment of renal cancers and is used in a variety of other cancer therapies. Polynucleotides encoding the L106P stability-affecting protein were inserted between polynucleotides of the IL-2 gene that encode the signal peptide and the remainder of the IL-2 protein to produce the chimeric gene, L-L106P-IL-2, which was stably introduced into HCT116 cells. […]
Thermostable luciferase or the human IL-2 gene were cloned into pBMN L106P iBlasticidin and used to generate amphotropic retrovirus (Banaszynski, L. A. et al. (2006) Cell. 126:995-1004). […] Cells grown in 96-well plates (2×10^4 cells/well) were treated with Shield1 as indicated and either bioluminescence measured using an IVIS 50 (Xenogen Product from Caliper Life Sciences) following luciferin addition (300 μg/mL), or media collected for ELISA.

L-L106P-IL-2 [6] = molecular target: T1, L-L106P-IL-2; test: IL-2 in tumor and serum of xenografted mice, ELISA; assay type: in vivo, CD1 nu-/nu-mice; details: 48 hr after start
Description: as §1
Analysis of IL-2 levels within the tumors of treated and untreated mice confirmed dose-dependent production of IL-2 at the tumor site in mice treated at 5 or 10 mg/kg Shield1 (FIG. 22C; p=0.032). […] A dose of 5 mg/kg Shield1 was sufficient to produce the same robust anti-tumor response as 10 mg/kg Shield1, while avoiding the increase in IL-2 serum levels associated with the higher ligand dose.
(§2) SCID or CD1 nu-/nu-mice (Charles River Co.) received subcutaneous dorsal injections of ˜1×10^7 cells, and tumors were allowed to establish as indicated. Animals were given an intraperitoneal injection of luciferin (225 mg/kg), anesthetized (2% isoflurane), and placed on the warmed stage (37° C.) of an IVIS 100 or IVIS 200 (Xenogen Product from Caliper Life Sciences) for imaging. Light produced was measured as photons/sec for designated regions of interest as described. Tumor volumes were also determined by caliper measurement, and mice were sacrificed when tumors reached 1.44 cm^3 for survival assays. In some experiments, serum samples were collected by retino-orbital bleedings and tumors collected post-mortem and homogenized for ELISA assay of cytokines. All experiments were run with institutional IACUC approval.

L106P-tsLuc = molecular target: T2, L106P-tsLuc (Homo sapiens, UniProt P62942, F37V); test: In vivo bioluminescence imaging of HCT116 L106P-luciferase xenografts; parameters: species or system SCID mice
T2 construct: expressed in transfected cells
T2 sequence (P62942 with tags, fused parts or gaps F37V): as the sequence (P62942 with tags, fused parts or gaps F37V) above

[7] = molecular target: T3, FKBP variant V24A-YFP fusion protein (Homo sapiens, UniProt P62942, F37V/V25A); test: Shield1 dose-response of FKBP-YFP fluorescence, flow cytometry; assay type: cell-based; details: NIH3T3 cells stably expressing V24A FKBP-YFP
T3 construct: expressed in transfected cells; host or cells: NIH3T3 (retroviral transduction)
T3 sequence (P62942 2-108 V25A/F37V): as the sequence (P62942 with tags, fused parts or gaps F37V) above, with V24A, P106L counted along it
Description: (§3) Experiments were performed in triplicate.

FKBP L106P-YFP fusion = molecular target: T4, FKBP L106P-YFP fusion (Homo sapiens, UniProt P62942, F37V); test: as above; assay type: cell-based
T4 construct: expressed in transfected cells
T4 sequence (P62942 with tags, fused parts or gaps F37V): as the sequence (P62942 with tags, fused parts or gaps F37V) above
Description: as §3

FKBP F36V variant = FKBP F36V variant (Homo sapiens, UniProt P62942, F37V); details: Clackson et al. 1998; cited from earlier work
Chain of FKBP F36V variant (P62942 2-108 F37V limits assumed): as the sequence (P62942 with tags, fused parts or gaps F37V) above, with P106L counted along it

vvDD = assay type: cell-based, vaccinia virus
[8] = test system: HCT116 L-L106P-IL-2 tumors; assay type: in vivo
Description: FIGS. 22A-22D show graphs relating to the conditional stabilization of a secreted immunomodulatory protein leads. […]. Data are represented as the average IL-2 concentration ±SEM (n=3). […]. Tumor volume was determined by caliper measurement and monitored over time. Data are represented as the average tumor volume ±SEM (n=5).
[…]. Tumors in the untreated control animals continued to increase in size over the course of the experiment. […].
as §2

C20-methallylrapamycin [MaRap]
Pharmacokinetic properties in vivo [1]: poor pharmacokinetic properties in vivo

1-[2-(3,4,5-trimethoxy-phenyl)-butyryl]-piperazine-2-carboxylic acid 3-(3,4-dimethoxy-phenyl)-1-[3-(2-morpholin-4-yl-ethoxy)-phenyl]-propyl ester [Shield1]
Feeding behavior, body weight, overall activity [2]: did not appear to affect feeding behavior, body weight, or overall activity | Treg infiltration into tumor (HCT116 tumors; delayed clearance of virus): increase in Treg infiltration | Survival of treated animals (HCT116 tumors; no Shield1 during the first 72 hours after vvDD L-L106P-IL-2): greater percent survival of the treated animals | Time until YFP expression is observed (FKBP-YFP fusion proteins [3]): ≤ 15 min | Time of maximum fluorescence after addition of Shield1 (FKBP-YFP fusion proteins [4]; NIH3T3 cells, FKBP-YFP variants): 24 h | Time fluorescence is stably maintained without further addition of Shield1 (FKBP-YFP fusion proteins [4]; after the maximum at 24 hours): ≥ 48 h | Dynamic range of secreted IL-2 (L-L106P-IL-2 [5]): approximately 25 fold | IL-2 per gram tumor tissue (L-L106P-IL-2 [6]; 5 mg/kg): more IL-2 than tumors from untreated mice | Serum IL-2 levels (L-L106P-IL-2 [6]; 5 mg/kg): did not produce any increase in serum IL-2 levels | IL-2 per gram tumor tissue (L-L106P-IL-2 [6]; 10 mg/kg): significantly higher levels of IL-2 than tumors from mice treated at 5 mg/kg | Serum IL-2 levels (L-L106P-IL-2 [6]; 10 mg/kg): significantly higher levels of serum IL-2; also recorded: significantly elevated levels | Time for bioluminescent signals to return to background (L106P-tsLuc; 10 mg/kg ip): ≤ 48 h | Increase in bioluminescent signal in the presence compared to the absence of Shield1 (L106P-tsLuc; 10 mg/kg ip, FIG. 21B): ~10 fold | Time of maximum expression levels following treatment (L106P-tsLuc; 10 mg/kg ip, L106P-tsLuc, FIG. 21A): 12 h | Bioluminescence under periodic treatment (L106P-tsLuc; 10 mg/kg once every 48 hours): maintain increased bioluminescence levels over the course of several weeks | Bioluminescence with increasing doses (L106P-tsLuc; 3, 6, or 10 mg/kg): increasing bioluminescence levels | Time of peak luminescence following a single injection of ligand (L106P-tsLuc; FIG. 7A, luciferase fused to FKBP F36V/L106P): about 10 hours | EC50 [7]: ~5 nM | Stabilization of FKBP L106P-YFP fusion protein (FKBP L106P-YFP fusion; 1 μM Shield1): fully stabilized | EC50 (FKBP L106P-YFP fusion; NIH3T3 cells stably expressing L106P-YFP, read-out: EC50 of Shield1 to stabilize the YFP fusion protein): ~100 nM | Binding tighter to the F36V variant compared to wild-type FKBP (FKBP F36V variant): about 1,000 fold | Replication of the virus (vvDD): did not affect the replication of the virus | Tumor establishment ([8]; cells pretreated with Shield1, then 10 mg/kg every 48 hours): Tumors failed to establish | Tumor burden relative to untreated animals ([8]; day 16, all Shield1-treated groups): significantly reduced tumor burden | Tumor size ([8]; i.p. 5 or 10 mg/kg every 48 hours from five days after implantation): tumor regression
